Laboratory results taken from US11554182B2, “Macrocyclic complexes of alpha-emitting radionuclides and their use in targeted radiotherapy of cancer” (CORNELL UNIVERSITY, priority 2017, dated 2023).

Test: In vivo biodistribution of ^225Ac complexes after intravenous injection
Parameters: species or system C57BL/6 mice
Method: In Vivo Biodistribution of ^225Ac Complexes of Macropa and DOTA. All experiments were approved by the Institutional Animal Care Committee (IACC) of the University of British Columbia and were performed in accordance with the Canadian Council on Animal Care Guidelines. A total of 9 female C57BL/6 mice (6-8 weeks old, 20-25 g) were used for the biodistribution study of each radiometal complex, n=3 for each time point.
Macropa (100 μL of a 1 mg/mL solution in NH4OAc) was diluted with 387 μL of NH4OAc (1 M, pH 7), and an aliquot (203 μL) of ^225Ac(NO3)3 (˜157 kBq) was then added; the pH of this solution was adjusted to 6.5-7 by the addition of 1 M NaOH (210 μL, trace metal grade). After 5 min at ambient temperature, the reaction solution was analyzed by TLC (0.4 M pH 4 sodium citrate as the eluent), which confirmed >95% radiochemical yield. The reaction was allowed to proceed overnight, and the radiochemical yield was again confirmed to be >95% the following morning. At this time, mice were anesthetized by 2% isoflurane, and approximately 100 μL (10-15 kBq) of the [^225Ac(macropa)]^+ complex were injected into the tail vein of each mouse. After injection, mice were allowed to recover and roam freely in their cages, and were euthanized by CO2 inhalation at 15 min, 1 h, or 5 h (n=3 at each time point) post-injection. Blood was collected by cardiac puncture and placed into an appropriate test tube for scintillation counting. Tissues collected included heart, liver, kidneys, lungs, small intestine, large intestine, brain, bladder, spleen, stomach, pancreas, bone, thyroid, tail, urine, and feces. Tissues were weighed and then counted with a calibrated gamma counter (Packard, Cobra II model 5002) using three energy windows: 60-120 keV (window A), 180-260 keV (window B), and 400-480 keV (window C). Counting was performed both immediately after sacrifice and after 7 days; counts were decay corrected from the time of injection and then converted to the percentage of injected dose (% ID) per gram of tissue (% ID/g). No differences were noted between the data; therefore, the biodistributions are reported using the data acquired immediately using window A.
The biodistribution studies of [^225Ac(DOTA)]^− and ^225Ac(NO3)3 were carried out as described above for [^225Ac(macropa)]^+, with the following modifications. [^225Ac(DOTA)]^− was prepared by adding ^225Ac(NO3)3 (338 μL, 1.1 MBq) to a solution of DOTA (100 μg, 20 mg/mL in H2O) in NH4OAc (467 μL, 0.15 M, pH 7). The pH of the solution was adjusted to 7 using NH4OAc (150 μL, 1 M, pH 7) and the solution was heated at 85° C. for 45 min. RCY>99% was confirmed by TLC as described above. [^225Ac(DOTA)]^− was diluted with saline to a final concentration of 0.05 MBq/100 μL, and 100 μL were injected into each mouse. ^225Ac(NO3)3 (˜58 μL, 0.4 MBq) was diluted and injected in the same manner as [^225Ac(DOTA)]^−. One mouse that was to be euthanized at the 5 h time point in the [^225Ac(DOTA)]^− study died shortly after injection. In the same manner, one mouse that was to be euthanized at the 1 h time point in the ^225Ac(NO3)3 study died.
The in vivo stability [^225Ac(macropa)]^+ was examined by comparing its biodistribution to those of ^225Ac(NO3)3 and [^225Ac(DOTA)]^−. C57BL/6 mice were injected via tail vein with 10-50 kBq of each radiometal complex and were sacrificed after 15 min, 1 h, or 5 h. The amount of ^225Ac retained in each organ was quantified by gamma counting and reported as the percent of injected dose per gram of tissue (% ID/g). The results of these studies are compiled in Tables 1-3. Inadequate stability of an ^225Ac complex leading to the loss of radioisotope in vivo is manifested by the accumulation of ^225Ac in the liver, spleen, and bone of mice.^[11,12,32] […] The biodistribution profile of [^225Ac(macropa)]^+ (FIG. 3B) differs markedly from that of ^225Ac(NO3)3. […]

[1] = 15 min after i.v. injection, energy window A (60-120 keV)
[2] = 15 min after i.v. injection, energy window B (180-260 keV)
[3] = 15 min after i.v. injection, energy window C (400-480 keV)
[4] = 1 h after i.v. injection, energy window A (60-120 keV)
[5] = 1 h after i.v. injection, energy window B (180-260 keV)
[6] = 1 h after i.v. injection, energy window C (400-480 keV)
[7] = 5 h after i.v. injection, energy window A (60-120 keV)
[8] = 5 h after i.v. injection, energy window B (180-260 keV)
[9] = 5 h after i.v. injection, energy window C (400-480 keV)
[10] = i.v. injection, C57BL/6 mice, up to 5 h

O=C([O-])c1cccc(CN2CCOCCOCCN(Cc3cccc(C(=O)[O-])n3)CCOCCOCC2)n1.[225Ac+3] [[^225Ac(macropa)]^+]
% ID/g in bladder [1]: 46.74 % ID/g
% ID/g in blood [1]: 5.11 % ID/g
% ID/g in bone (femur + joint) [1]: 2.52 % ID/g
% ID/g in brain [1]: 0.26 % ID/g
% ID/g in feces [1]: 0.91 % ID/g
% ID/g in heart [1]: 2.19 % ID/g
% ID/g in kidneys [1]: 27.55 % ID/g
% ID/g in large intestines [1]: 2.40 % ID/g
% ID/g in liver [1]: 2.28 % ID/g
% ID/g in lungs [1]: 5.98 % ID/g
% ID/g in pancreas [1]: 1.46 % ID/g
% ID/g in small intestines [1]: 2.64 % ID/g
% ID/g in spleen [1]: 2.52 % ID/g
% ID/g in stomach [1]: 2.97 % ID/g
% ID/g in tail [1]: 8.84 % ID/g
% ID/g in thyroids [1]: 28.23 % ID/g
% ID/g in urine [1]: 1378.82 % ID/g
% ID/g in bladder [2]: 47.64 % ID/g
% ID/g in blood [2]: 5.23 % ID/g
% ID/g in bone (femur + joint) [2]: 2.69 % ID/g
% ID/g in brain [2]: 0.23 % ID/g
% ID/g in feces [2]: 1.04 % ID/g
% ID/g in heart [2]: 2.39 % ID/g
% ID/g in kidneys [2]: 27.86 % ID/g
% ID/g in large intestines [2]: 2.53 % ID/g
% ID/g in liver [2]: 2.17 % ID/g
% ID/g in lungs [2]: 5.83 % ID/g
% ID/g in pancreas [2]: 1.63 % ID/g
% ID/g in small intestines [2]: 2.59 % ID/g
% ID/g in spleen [2]: 2.55 % ID/g
% ID/g in stomach [2]: 3.29 % ID/g
% ID/g in tail [2]: 9.39 % ID/g
% ID/g in thyroids [2]: −2.22 % ID/g
% ID/g in urine [2]: 1541.60 % ID/g
% ID/g in bladder [3]: 64.68 % ID/g
% ID/g in blood [3]: 6.49 % ID/g
% ID/g in bone (femur + joint) [3]: 3.74 % ID/g
% ID/g in brain [3]: 0.17 % ID/g
% ID/g in feces [3]: 1.26 % ID/g
% ID/g in heart [3]: 2.87 % ID/g
% ID/g in kidneys [3]: 33.46 % ID/g
% ID/g in large intestines [3]: 3.02 % ID/g
% ID/g in liver [3]: 2.72 % ID/g
% ID/g in lungs [3]: 7.55 % ID/g
% ID/g in pancreas [3]: 3.00 % ID/g
% ID/g in small intestines [3]: 3.46 % ID/g
% ID/g in spleen [3]: 3.79 % ID/g
% ID/g in stomach [3]: 3.45 % ID/g
% ID/g in tail [3]: 11.75 % ID/g
% ID/g in thyroids [3]: −6.46 % ID/g
% ID/g in urine [3]: 2387.66 % ID/g
% ID/g in bladder [4]: 6.23 % ID/g
% ID/g in blood [4]: 0.40 % ID/g
% ID/g in bone (femur + joint) [4]: 0.31 % ID/g
% ID/g in brain [4]: 0.12 % ID/g
% ID/g in feces [4]: 0.28 % ID/g
% ID/g in heart [4]: 0.31 % ID/g
% ID/g in kidneys [4]: 13.36 % ID/g
% ID/g in large intestines [4]: 0.36 % ID/g
% ID/g in liver [4]: 0.75 % ID/g
% ID/g in lungs [4]: 0.51 % ID/g
% ID/g in pancreas [4]: 0.19 % ID/g
% ID/g in small intestines [4]: 1.10 % ID/g
% ID/g in spleen [4]: 0.51 % ID/g
% ID/g in stomach [4]: 0.41 % ID/g
% ID/g in tail [4]: 1.82 % ID/g
% ID/g in thyroids [4]: 3.18 % ID/g
% ID/g in urine [4]: 489.11 % ID/g
% ID/g in bladder [5]: 5.92 % ID/g
% ID/g in blood [5]: 0.39 % ID/g
% ID/g in bone (femur + joint) [5]: 0.17 % ID/g
% ID/g in brain [5]: 0.12 % ID/g
% ID/g in feces [5]: 0.27 % ID/g
% ID/g in heart [5]: 0.20 % ID/g
% ID/g in kidneys [5]: 12.97 % ID/g
% ID/g in large intestines [5]: 0.22 % ID/g
% ID/g in liver [5]: 0.70 % ID/g
% ID/g in lungs [5]: 0.54 % ID/g
% ID/g in pancreas [5]: 0.12 % ID/g
% ID/g in small intestines [5]: 0.94 % ID/g
% ID/g in spleen [5]: 0.23 % ID/g
% ID/g in stomach [5]: 0.33 % ID/g
% ID/g in tail [5]: 1.82 % ID/g
% ID/g in thyroids [5]: 0.10 % ID/g
% ID/g in urine [5]: 517.19 % ID/g
% ID/g in bladder [6]: 9.00 % ID/g
% ID/g in blood [6]: 0.54 % ID/g
% ID/g in bone (femur + joint) [6]: 0.70 % ID/g
% ID/g in brain [6]: 0.23 % ID/g
% ID/g in feces [6]: 0.69 % ID/g
% ID/g in heart [6]: 0.23 % ID/g
% ID/g in kidneys [6]: 17.38 % ID/g
% ID/g in large intestines [6]: 0.79 % ID/g
% ID/g in liver [6]: 1.08 % ID/g
% ID/g in lungs [6]: 0.84 % ID/g
% ID/g in pancreas [6]: 0.43 % ID/g
% ID/g in small intestines [6]: 1.62 % ID/g
% ID/g in spleen [6]: 0.48 % ID/g
% ID/g in stomach [6]: 0.17 % ID/g
% ID/g in tail [6]: 2.57 % ID/g
% ID/g in thyroids [6]: 8.34 % ID/g
% ID/g in urine [6]: 641.63 % ID/g
% ID/g in bladder [7]: 4.25 % ID/g
% ID/g in blood [7]: 0.01 % ID/g
% ID/g in bone (femur + joint) [7]: 0.05 % ID/g
% ID/g in brain [7]: 0.02 % ID/g
% ID/g in feces [7]: 3.46 % ID/g
% ID/g in heart [7]: 0.10 % ID/g
% ID/g in kidneys [7]: 0.74 % ID/g
% ID/g in large intestines [7]: 0.49 % ID/g
% ID/g in liver [7]: 0.39 % ID/g
% ID/g in lungs [7]: 0.01 % ID/g
% ID/g in pancreas [7]: 0.10 % ID/g
% ID/g in small intestines [7]: 0.29 % ID/g
% ID/g in spleen [7]: 0.11 % ID/g
% ID/g in stomach [7]: 0.01 % ID/g
% ID/g in tail [7]: 0.14 % ID/g
% ID/g in thyroids [7]: 0.10 % ID/g
% ID/g in urine [7]: 12.78 % ID/g
% ID/g in bladder [8]: 3.69 % ID/g
% ID/g in blood [8]: 0.00 % ID/g
% ID/g in bone (femur + joint) [8]: 0.02 % ID/g
% ID/g in brain [8]: −0.01 % ID/g
% ID/g in feces [8]: 3.49 % ID/g
% ID/g in heart [8]: −0.04 % ID/g
% ID/g in kidneys [8]: 0.78 % ID/g
% ID/g in large intestines [8]: 0.45 % ID/g
% ID/g in liver [8]: 0.36 % ID/g
% ID/g in lungs [8]: −0.05 % ID/g
% ID/g in pancreas [8]: −0.12 % ID/g
% ID/g in small intestines [8]: 0.29 % ID/g
% ID/g in spleen [8]: 0.09 % ID/g
% ID/g in stomach [8]: 0.04 % ID/g
% ID/g in tail [8]: 0.13 % ID/g
% ID/g in thyroids [8]: −6.94 % ID/g
% ID/g in urine [8]: 13.51 % ID/g
% ID/g in bladder [9]: 8.52 % ID/g
% ID/g in blood [9]: 0.04 % ID/g
% ID/g in bone (femur + joint) [9]: 0.08 % ID/g
% ID/g in brain [9]: −0.01 % ID/g
% ID/g in feces [9]: 5.27 % ID/g
% ID/g in heart [9]: 0.28 % ID/g
% ID/g in kidneys [9]: 1.07 % ID/g
% ID/g in large intestines [9]: 0.68 % ID/g
% ID/g in liver [9]: 0.55 % ID/g
% ID/g in lungs [9]: 0.15 % ID/g
% ID/g in pancreas [9]: 0.13 % ID/g
% ID/g in small intestines [9]: 0.42 % ID/g
% ID/g in spleen [9]: 0.43 % ID/g
% ID/g in stomach [9]: 0.13 % ID/g
% ID/g in tail [9]: 0.28 % ID/g
% ID/g in thyroids [9]: 19.89 % ID/g
% ID/g in urine [9]: 22.27 % ID/g
route of excretion (in words) (i.v. injection, C57BL/6 mice): Most of the injected dose was renally excreted
clearance from blood / mice (in words) [10]: rapidly cleared from mice
organ accumulation (in words) [10]: did not accumulate in any organ
